What follows are molecules tested against T1, human β3 adrenergic receptor (Homo sapiens, UniProt P13945) (assay: whole cell receptor coupled c-AMP assay (Emax relative to isoproterenol)). Settings: % intrinsic activity relative to isoproterenol maximal response; transfected CHO cells.
T1 construct: expressed in transfected cells; host or cells: DXB-11 Chinese hamster ovary (CHO) cell line, stably transfected, phd expression vector
Type: cell-based
Description: The genes encoding the human β1-adrenergic receptor (Frielle et al., Proc. Natl. Acad. Sci., 84:7920–7924, 1987), the human β2-adrenergic receptor (Kobika el al., Proc. Natl. Acad. Sci., 84:46–50, 1987, Emorine et al., Proc. Natl. Acad. Sci., 84:6995–6999, 1987) and the human β3 adrenergic receptor (Granneman et al., Molecular Pharmacology, 44(2):264–70, 1993) are individually subcloned into a phd expression vector (Grinnell et al., Bio/Technology, 5:1189–1192, 1987) and transfected into the DXB-11 Chinese hamster ovary (CHO) cell line by calcium phosphate precipitation methodology. The stably transfected cells are grown to 95% confluency in 95% Dulbecco's modified Eagles Medium (DMEM), 5% fetal bovine serum and 0.01% proline. Media is removed and the cells are washed with phosphate buffered (pH 7.4) saline (without magnesium and calcium). Cells are then lifted using an enzyme free cell dissociation solution (Specialty Media, Lavallette, N.J.) and pelleted by centrifugation.
Cells from each of the above cell lines are resuspended and added (20,000/well) to a 96-well plate. Cells are incubated at 37° C. with representative compounds of the invention for 20 minutes in buffer (Hank's balanced salt solution, 10 mM HEPES, 0.1% BSA, 1 mM L-ascorbic acid, 0.2% dimethyl sulfoxide, 1 mM 3-isobutyl-1-methylxanthine, pH 7.4). After halting the incubation with quench buffer (50 mM Na Acetate, 0.25% Triton X-100, pH 5.8), the c-AMP level is quantified by scintillation proximity assay (SPA) using a modification of the commercially available c-AMP kit (Amersham, Arlington Heights, Ill.) with rabbit anti-cAMP antibody (ICN Biomedicals, Aurora, Ohio) for the kit.
Sigmoidal dose response curves, from the whole cell receptor coupled c-AMP assay are fit to a four parameter logistic equation using non linear regression: y=(a–d)/(1+(Dose/c)^b)+d where a and d are responses at zero and maximal dose, b is the slope factor and c is the EC50 as previously described (DeLean et al., Am. J. Physiol., 235, E97–E102, 1978). EC50 is assessed as the concentration producing 50% of the maximum response to each agonist.
Isoproterenol is accepted in the art as a non-selective β3 agonist and is widely used as a comparator in evaluating the activity of compounds. See Trends in Pharm. Sci., 15:3, 1994. The % intrinsic activity (Emax) of representative compounds of the invention is assessed relative to isoproterenol by the compound's maximal response divided by the isoproterenol maximal response times 100.

T1 sequence (P13945 whole entry): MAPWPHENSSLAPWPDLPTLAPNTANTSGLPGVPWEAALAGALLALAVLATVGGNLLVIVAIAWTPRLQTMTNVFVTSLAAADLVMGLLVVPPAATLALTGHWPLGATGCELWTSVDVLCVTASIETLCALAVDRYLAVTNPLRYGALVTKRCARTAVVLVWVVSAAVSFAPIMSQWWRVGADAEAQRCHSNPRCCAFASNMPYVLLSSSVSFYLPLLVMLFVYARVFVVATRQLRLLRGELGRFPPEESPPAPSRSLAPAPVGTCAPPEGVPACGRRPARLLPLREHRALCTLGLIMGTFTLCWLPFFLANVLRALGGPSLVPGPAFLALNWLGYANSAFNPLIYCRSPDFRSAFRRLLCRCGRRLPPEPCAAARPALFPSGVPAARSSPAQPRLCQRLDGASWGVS

Emax [%]	SMILES
84.9	CC(C)(Cc1c[nH]c2c(OCC3=NCCS3)cccc12)NC[C@H](O)COc1cccc2c1C1(CCCC1)C(=O)N2 [Example 66]
73.3	C[C@H](Cn1ccc2c(OCC(=O)O)cccc21)NC[C@H](O)COc1cccc2c1C1(CCCC1)C(=O)N2 [Example 68]
37.9	CC(C)(Cc1c[nH]c2cccc(C(=O)O)c12)NC[C@H](O)COc1cccc2c1C1(CCCC1)C(=O)N2 [Example 69]
53.5	CC(C)(Cc1c[nH]c2ccc(C(=O)O)cc12)NC[C@H](O)COc1cccc2c1C1(CCCC1)C(=O)N2 [Example 70]
59.5	CC(C)(Cc1c[nH]c2c(C(=O)O)cccc12)NC[C@H](O)COc1cccc2c1C1(CCCC1)C(=O)N2 [Example 71]
56.2	CC(C)(Cc1c[nH]c2cc(C(=O)O)ccc12)NC[C@H](O)COc1cccc2c1C1(CCCC1)C(=O)N2 [Example 72]
82.4	CC(C)(Cc1c[nH]c2c(Oc3ccc(C(=O)O)cn3)cccc12)NC[C@H](O)COc1cccc2c1C1(CCCC1)C(=O)N2 [Example 73]
78.1	CC(C)(Cc1c[nH]c2c(Oc3ccc(-c4nn[nH]n4)cn3)cccc12)NC[C@H](O)COc1cccc2c1C1(CCCC1)C(=O)N2 [Example 74]
80.1	CC(C)(Cc1c[nH]c2c(Oc3ccc(C(N)=O)cn3)cccc12)NC[C@H](O)COc1cccc2c1C1(CCCC1)C(=O)N2 [Example 75]
80.1	CC(C)(Cc1c[nH]c2c(Oc3ncccc3-c3nn[nH]n3)cccc12)NC[C@H](O)COc1cccc2c1C1(CCCC1)C(=O)N2 [Example 76]
93.5	CC(C)(Cc1c[nH]c2c(-c3cccc(C(=O)O)c3)cccc12)NC[C@H](O)COc1cccc2c1C1(CCCC1)C(=O)N2 [Example 78]
75.1	CC(C)(Cc1c[nH]c2c(-c3ccc(C(=O)O)s3)cccc12)NC[C@H](O)COc1cccc2c1C1(CCCC1)C(=O)N2 [Example 79]
77.2	CC(C)(Cc1c[nH]c2c(CCC(=O)O)cccc12)NC[C@H](O)COc1cccc2c1C1(CCCC1)C(=O)N2 [Example 80]
77.4	CC(C)(Cc1c[nH]c2c(CCc3nnn[nH]3)cccc12)NC[C@H](O)COc1cccc2c1C1(CCCC1)C(=O)N2 [Example 81]
72.7	CC(C)(Cc1c[nH]c2cc(CCc3nnn[nH]3)ccc12)NC[C@H](O)COc1cccc2c1C1(CCCC1)C(=O)N2 [Example 82]
79.3	CC(C)(Cc1c[nH]c2c(CCc3cnccn3)cccc12)NC[C@H](O)COc1cccc2c1C1(CCCC1)C(=O)N2 [Example 83]
78.5	CC(C)(Cc1c[nH]c2c(CCc3ccc(S(N)(=O)=O)cc3)cccc12)NC[C@H](O)COc1cccc2c1C1(CCCC1)C(=O)N2 [Example 84]
48.3	CC(C)(Cc1c[nH]c2cccc(C(N)=O)c12)NC[C@H](O)COc1cccc2c1C1(CCCC1)C(=O)N2 [Example 85]

Reference: patent publication US7087635B2, “3-substituted oxindole β3 agonists” (Eli Lilly and Company, priority 2001, dated 2006)
